# Experimental data from the supplement of paper PMC10307832.
# Experiments:
# Experiment in all cases: relative viability (nuclei count vs DMSO), 5 days (fraction); higher = more cells survive
# [1] = compound: C#Cc1cccc(Nc2ncnc3cc(OCCOC)c(OCCOC)cc23)c1 [Erlotinib] + C[C@]1(O)C[C@@H](c2nc(-c3ccc4ccc(-c5ccccc5)nc4c3)c3c(N)nccn32)C1 [Linsitinib] (partner 1 µM)
# Summary of the method: (§1)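 Five library-drug doses in √10 steps were combined with a fixed anchor-drug dose, or a single drug was given alone, by pin tool to lung cancer cell lines in 1536-well plates the day after seeding. Nuclei were stained and counted after 5 days. Relative viability is the nuclei count in treated wells over that in vehicle wells, taken as the median of duplicate plates.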
# [2] = compound: O=C(Nc1c[nH]nc1-c1nc2ccc(CN3CCOCC3)cc2[nH]1)NC1CC1 [AT9283] + NC(=O)Nc1cc(-c2cccc(F)c2)sc1C(=O)N[C@H]1CCCNC1 [AZD7762] (partner 0.2 µM)
# Summary of the method: as §1
# [3] = compound: O=C(Nc1c[nH]nc1-c1nc2ccc(CN3CCOCC3)cc2[nH]1)NC1CC1 [AT9283] + Cc1nc(Nc2ncc(C(=O)Nc3c(C)cccc3Cl)s2)cc(N2CCN(CCO)CC2)n1 [Dasatinib] (partner 0.075 µM)
# Summary of the method: as §1
# [4] = compound: O=C(Nc1c[nH]nc1-c1nc2ccc(CN3CCOCC3)cc2[nH]1)NC1CC1 [AT9283] + CS(=O)(=O)CCNCc1ccc(-c2ccc3ncnc(Nc4ccc(OCc5cccc(F)c5)c(Cl)c4)c3c2)o1 [Lapatinib] (partner 2 µM)
# Summary of the method: as §1
# [5] = compound: O=C(Nc1c[nH]nc1-c1nc2ccc(CN3CCOCC3)cc2[nH]1)NC1CC1 [AT9283] + CC(=O)Nc1cccc(-n2c(=O)n(C3CC3)c(=O)c3c(Nc4ccc(I)cc4F)n(C)c(=O)c(C)c32)c1 [Trametinib] (partner 0.02 µM)
# Summary of the method: as §1
Cell Line,relative viability ([1]; first compound 0.02 µM),relative viability ([1]; first compound 0.2 µM),relative viability ([1]; first compound 0.6325 µM),relative viability ([1]; first compound 2 µM),relative viability ([2]; first compound 0.003 µM),relative viability ([2]; first compound 0.03 µM),relative viability ([2]; first compound 0.09487 µM),relative viability ([2]; first compound 0.3 µM),relative viability ([3]; first compound 0.003 µM),relative viability ([3]; first compound 0.03 µM),relative viability ([3]; first compound 0.09487 µM),relative viability ([3]; first compound 0.3 µM),relative viability ([4]; first compound 0.003 µM),relative viability ([4]; first compound 0.03 µM),relative viability ([4]; first compound 0.09487 µM),relative viability ([4]; first compound 0.3 µM),relative viability ([5]; first compound 0.003 µM),relative viability ([5]; first compound 0.03 µM),relative viability ([5]; first compound 0.09487 µM),relative viability ([5]; first compound 0.3 µM)
PC-3 [JPC-3],0.829,0.461,0.423,0.385,0.826,0.741,0.609,0.394,1.06,1.02,0.876,0.718,0.444,0.436,0.422,0.304,0.718,0.672,0.71,0.481
NCI-H1648,–,–,–,–,0.465,0.631,0.368,0.37,–,–,–,–,–,–,–,–,0.404,0.563,0.333,0.336
NCI-H1563,1.2,1.23,1.2,1.15,–,–,–,–,0.444,0.444,0.42,0.327,0.941,0.811,0.843,0.701,–,–,–,–
ChaGo-K-1,–,–,–,–,0.88,0.685,0.404,0.222,0.547,0.504,0.225,0.257,–,–,–,–,0.78,0.844,0.494,0.205
NCI-H522,–,–,–,–,0.626,0.582,0.399,0.37,0.66,0.678,0.583,0.476,–,–,–,–,0.736,0.811,0.599,0.415
COR-L23,1.21,0.95,1.07,–,–,–,–,–,0.503,0.207,0.0898,0.101,1,0.12,0.129,0.172,0.668,0.245,0.166,0.161
COR-L 105,0.907,0.532,0.385,0.289,–,–,–,–,0.327,0.181,0.197,0.185,0.371,0.256,0.223,0.337,0.399,0.395,0.328,0.297
SW 900,–,–,–,–,0.478,1.15,0.545,0.271,0.652,0.533,0.438,0.385,–,–,–,–,0.66,0.607,0.345,0.27
ABC-1,0.928,0.674,0.776,0.686,0.83,0.365,1.18,0.229,0.498,0.178,0.196,0.207,0.938,1.19,0.476,0.46,–,–,–,–
NCI-H520,0.98,0.915,1.03,0.965,–,–,–,–,0.2,0.174,0.147,0.145,0.77,0.295,0.21,0.196,0.719,0.276,0.291,0.149
NCI-H2009,1.26,1.15,1.2,1.22,–,–,–,–,0.308,0.212,0.124,0.099,1.01,0.337,0.31,0.305,0.346,0.267,0.17,0.0856
NCI-H2228,0.515,0.75,0.557,0.514,–,–,–,–,0.491,0.503,0.307,0.0747,1.06,0.367,0.115,0.141,0.422,0.518,0.239,0.207
A549,0.546,0.523,0.63,0.489,–,–,–,–,–,–,–,–,1.02,0.0919,0.0686,0.0884,–,–,–,–
UMC-11,1.04,1.05,1.16,0.945,–,–,–,–,0.453,0.128,0.139,0.154,0.978,0.142,0.128,0.202,0.679,0.134,0.126,0.164
Calu-6,1.01,0.913,0.902,0.816,–,–,–,–,–,–,–,–,1.1,0.33,0.245,0.27,–,–,–,–
EBC-1,0.918,0.969,1.06,0.699,–,–,–,–,–,–,–,–,0.217,0.178,0.208,0.182,–,–,–,–
NCI-H1623,–,–,–,–,–,–,–,–,0.567,0.51,0.615,0.324,–,–,–,–,–,–,–,–
HCC-44,0.663,0.664,0.723,0.61,1.04,1.05,1.02,0.971,–,–,–,–,0.922,0.641,0.23,0.188,0.923,1.07,0.635,0.938
NCI-H1650,–,–,–,–,–,–,–,–,0.347,0.301,0.216,0.171,0.697,0.287,0.225,0.115,0.604,0.545,0.399,0.179
LCLC-103H,1.1,1.21,1.15,1.01,0.749,0.661,0.554,0.328,0.433,0.486,0.428,0.296,–,–,–,–,0.661,0.716,0.441,0.4
NCI-H661,0.731,0.432,0.663,0.493,–,–,–,–,0.862,0.355,0.307,0.26,0.471,0.518,0.276,0.286,0.571,0.441,0.423,0.323
NCI-H1299,1.07,0.968,1.04,0.956,–,–,–,–,–,–,–,–,1.02,0.509,0.404,0.343,–,–,–,–
NCI-H2023,0.721,0.574,0.428,0.496,–,–,–,–,0.526,0.42,0.182,0.101,0.778,0.133,0.122,0.0743,0.572,0.604,0.227,0.119
NCI-H2342,–,–,–,–,0.439,0.364,0.36,0.4,0.295,0.292,0.289,0.27,–,–,–,–,0.841,0.808,0.707,0.442
